Source: patent publication US6737383B1, “Herbicidal oxadiazolidines” (priority 1999, dated 2004)

Experiments:
barnyardgrass = assay: Test A barnyardgrass; type: in vivo, Echinochloa crus-galli; settings: 0 to 10 scale where 0 is no effect and 10 is complete control
Method in brief: (§1)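 Ratings came from visual comparison with untreated plants about eleven days after treatment, scored 0 for no effect through 10 for complete control. Both soil-drench preemergence and runoff-spray postemergence applications were made at the same time.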

crabgrass = assay: Test A crabgrass; type: in vivo, Digitaria spp.; settings: 0 to 10 scale where 0 is no effect and 10 is complete control
Method in brief: as §1

morningglory = assay: Test A morningglory; type: in vivo, Ipomoea spp.; settings: 0 to 10 scale where 0 is no effect and 10 is complete control
Method in brief: as §1

velvetleaf = assay: Test A velvetleaf; type: in vivo, Abutilon theophrasti; settings: 0 to 10 scale where 0 is no effect and 10 is complete control
Method in brief: as §1

Alexandergrass = assay: Test D Alexandergrass; type: in vivo, Brachiaria plantaginea; settings: Rate 125 g/ha, Preemergence; 0 to 100 scale, 0 no injury, 100 complete control
Method in brief: (§2)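 Scoring used a 0–100 visual injury scale, with 0 meaning no effect and 100 complete control, assessed 14–21 days after application alongside untreated pots. Preemergence treatments went onto sandy loam surfaces of separately potted seeds within a day of sowing.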

common ragweed = assay: Test D common ragweed; type: in vivo, Ambrosia elatior; settings: Rate 125 g/ha, Preemergence; 0 to 100 scale, 0 no injury, 100 complete control
Method in brief: as §2

common groundsel = assay: Test D common groundsel; type: in vivo, Senecio vulgaris; settings: Rate 125 g/ha, Preemergence; 0 to 100 scale, 0 no injury, 100 complete control
Method in brief: as §2

dallisgrass = assay: Test D dallisgrass; type: in vivo, Paspalum dilatatum; settings: Rate 125 g/ha, Preemergence; 0 to 100 scale, 0 no injury, 100 complete control
Method in brief: as §2

goosegrass = assay: Test D goosegrass; type: in vivo, Eleusine indica; settings: Rate 125 g/ha, Preemergence; 0 to 100 scale, 0 no injury, 100 complete control
Method in brief: as §2

itchgrass = assay: Test D itchgrass; type: in vivo, Rottboellia exaltata; settings: Rate 125 g/ha, Preemergence; 0 to 100 scale, 0 no injury, 100 complete control
Method in brief: as §2

Johnson grass = assay: Test D Johnson grass; type: in vivo, Sorghum halepense; settings: Rate 125 g/ha, Preemergence; 0 to 100 scale, 0 no injury, 100 complete control
Method in brief: as §2

large crabgrass = assay: Test D large crabgrass; type: in vivo, Digitaria sanguinalis; settings: Rate 125 g/ha, Preemergence; 0 to 100 scale, 0 no injury, 100 complete control
Method in brief: as §2

purple nutsedge = assay: Test D purple nutsedge; type: in vivo, Cyperus rotundus; settings: Rate 125 g/ha, Preemergence; 0 to 100 scale, 0 no injury, 100 complete control
Method in brief: as §2

sandbur = assay: Test D sandbur; type: in vivo, Cenchrus echinatus; settings: Rate 125 g/ha, Preemergence; 0 to 100 scale, 0 no injury, 100 complete control
Method in brief: as §2

Spanishneedles = assay: Test D Spanishneedles; type: in vivo, Bidens bipinnata; settings: Rate 125 g/ha, Preemergence; 0 to 100 scale, 0 no injury, 100 complete control
Method in brief: as §2

surinam grass = assay: Test D surinam grass; type: in vivo, Brachiaria decumbens; settings: Rate 125 g/ha, Preemergence; 0 to 100 scale, 0 no injury, 100 complete control
Method in brief: as §2

Green foxtail = assay: Test D green foxtail; type: in vivo; settings: Rate 125 g/ha, Preemergence; 0 to 100 scale, 0 no injury, 100 complete control
Method in brief: as §2

chickweed = assay: Test E chickweed; type: in vivo, Stellaria media; settings: Preemergence

Structure (SMILES): CC(C)N(C(=O)n1oc(=O)n(C(C)C)c1=O)c1ccc(Cl)cc1 [Compound 114]
- Plant response rating, Barnyardgrass (barnyardgrass; Postemergence, Rate 1000 g/ha): 8
- Plant response rating, Barnyardgrass (barnyardgrass; Pre-emergence, Rate 2000 g/ha): 10
- Plant response rating, Crabgrass (crabgrass; Postemergence, Rate 1000 g/ha): 7
- Plant response rating, Crabgrass (crabgrass; Pre-emergence, Rate 2000 g/ha): 10
- Plant response rating, Morningglory (morningglory; Postemergence, Rate 1000 g/ha): 10
- Plant response rating, Morningglory (morningglory; Pre-emergence, Rate 2000 g/ha): 6
- Plant response rating, Velvetleaf (velvetleaf; Postemergence, Rate 1000 g/ha): 5
- Plant response rating, Velvetleaf (velvetleaf; Pre-emergence, Rate 2000 g/ha): 6
- Plant response rating, Alexandergrass (Alexandergrass): 98
- Plant response rating, C. ragweed (common ragweed): 0
- Plant response rating, Com. groundsel (common groundsel): 85
- Plant response rating, Dallisgrass (dallisgrass): 100
- Plant response rating, Goosegrass (goosegrass): 100
- Plant response rating, Itchgrass (itchgrass): 20
- Plant response rating Johnsongrass (Johnson grass): 0
- Plant response rating Large crabgrass (large crabgrass): 100
- Purple nutsedge plant response rating (purple nutsedge): 20
- Sandbur plant response rating (sandbur): 85
- Spanishneedles plant response rating (Spanishneedles): 0
- Surinam grass plant response rating (surinam grass): 75
- Green foxtail plant response rating (Green foxtail): 100
- Plant response rating, Green foxtail (Green foxtail): 100
- Plant response rating, Chickweed (chickweed; Rate 125 g/ha, 0 to 100 scale (0 no effect, 100 complete control)): 15
- Plant response rating, Chickweed (chickweed; Rate 250 g/ha, 0 to 100 scale): 50
- Plant response rating, Chickweed (chickweed; Rate 500 g/ha, 0 to 100 scale where 0 is no effect and 100 is complete control): 100
